Measurements published in patent US6458776B1, “5-ASA derivatives having anti-inflammatory and antibiotic activity and methods of treating diseases therewith” (Nobex Corporation, priority 2000, dated 2002).

How the values were obtained:
[1] = parameters: species or system rats; details: rat, 100 mg/kg
Method: 5-[4-(3-Carboxy-propionylsulfamoyl)-phenylazo]-2-hydroxy-benzoic acid (1), a compound of the present invention, and sulfasalazine (used as a control; not part of the present invention) were orally dosed to rats. The degradation and the generation of their metabolites after the oral dosing were measured to be able to confirm that (1) undergoes bacterial azo reduction and yields its metabolites, 5-aminosalicylic acid (5-ASA) and C4 sulfanomide.
This experiment was performed to confirm that (1) undergoes a bacterial reduction process and yields its metabolites in in-vivo metabolism. The quantification of its metabolites was also carried out. Sulfasalazine was used as a control since the same azo bond cleavage by bacteria occurs with it, which results in 5-aminosalicylic acid and sulfapyridine as its metabolites.
A total of 7 rats were used for the experiment and methylcellulose was used as a vehicle. The dosage amount was 100 mg/kg per rat. Three rats were dosed with (1) and the other three rats were dosed with sulfasalazine. One rat was used as a control and dosed with methylcellulose. Both urine and feces were collected over 2 days and analyzed by […].
Urine was collected each day and 300 μL of aliquot from each sample was centrifuged for 10 minutes at 5000 g. 80 μL of supernatant was injected for analysis. Feces was also collected, each day and homogenized with a 1:1 mixture of water and acetonitrile. This mixture was then centrifuged for 20 minutes at 5000 g. 80 μL of supernatant was injected for analysis.
A Waters 2690 HPLC was used for sample analysis as follows:
Mobile phase programming: Gradient
Mobile phase: A=Water+0.1% TFA B=Acetonitrile+0.1% TFA
Column: Phenomenex Max RP, 80 Å, 4.6 mm×250 mm
PDA settings: Collected spectrum: 210-400nm Extracted chromatogram: 280 and/or other
Run time/sample: Approximately 50 min.

Compound	melting point [°C]	degradation after oral dosing ([1]; in vivo)	compounds detected, day 2 collection ([1]; in vivo, po)	metabolites detected in feces, day 1 collection ([1]; in vivo, po)	metabolites detected in urine ([1]; in vivo, po)	parent compound detected in feces ([1]; in vivo, po)	parent compound detected in urine ([1]; in vivo, po)	azo reduction in vivo ([1]; po)	generation of sulfapyridine ([1]; in vivo, po)
O=C(O)CC(=O)NS(=O)(=O)c1ccc(N=Nc2ccc(O)c(C(=O)O)c2)cc1 [Example 3, 5-[4-(2-Carboxy-Acetylsulfamoyl)-Phenylazo]-2-Hydroxy-Benzoic Acid]	178	–	–	–	–	–	–	–	–
O=C(O)CCC(=O)NS(=O)(=O)c1ccc(N=Nc2ccc(O)c(C(=O)O)c2)cc1 [(1), 5-[4-(3-Carboxy-propionylsulfamoyl)-phenylazo]-2-hydroxy-benzoic acid]	192	degraded and its metabolites were produced as expected	No compounds were detected	acetylated 5-ASA and C4 sulfanomide were detected	none of its metabolites were detected	not detected	only a very small amount	undergo azo reduction	–
O=C(O)c1cc(/N=N/c2ccc(S(=O)(=O)Nc3ccccn3)cc2)ccc1O [Sulfasalazine, sulfasalazine, reference compound]	–	also degraded	No compounds were detected	Most rats showed acetylated 5-ASA	–	–	–	undergo azo reduction	only one rat showed the generation of sulfapyridine
